Laboratory results from the NIST ThermoML archive (doi:10.1016/j.jct.2017.03.016).
± gives the expanded uncertainty stated by the source.

How the values were obtained:
[1] = refractive index (Na D-line) (dimensionless); settings: 101.33 kPa, Liquid, Standard Abbe refractometry
[2] = for surface tension liquid-gas: Maximal bubble pressure; for mass density: 101.33 kPa, Liquid, Vibrating tube method

CCn1cc[n+](CCOC)c1.N#C[N-]C#N [1-ethyl-3-(2-methoxyethyl)imidazolium dicyanamide]
Settings	mass density, [2] [kg/m3]	refractive index, [1]	surface tension liquid-gas, [2] [mN/m]
298.15 K	1113.6 ± 2.3	1.5053 ± 0.0031	51 ± 0.5
303.15 K	1110.21 ± 2.3	1.504 ± 0.0031	50.7 ± 0.5
308.15 K	1106.83 ± 2.3	1.5028 ± 0.0031	50.4 ± 0.5
313.15 K	1103.48 ± 2.3	1.5017 ± 0.0031	50.1 ± 0.5
318.15 K	1100.15 ± 2.3	1.5 ± 0.0031	49.8 ± 0.5
323.15 K	1096.84 ± 2.3	1.4989 ± 0.0031	49.5 ± 0.5
328.15 K	1093.53 ± 2.3	1.4977 ± 0.0031	49.3 ± 0.5
333.15 K	1090.26 ± 2.3	1.496 ± 0.0031	49.1 ± 0.5
338.15 K	1087 ± 2.3	1.4946 ± 0.0031	48.8 ± 0.5
